Data set [1] has as its system HPV 16- and HPV 18-positive cells. The settings on record: in vitro experiments [7]; cited from earlier work.
Data set [2] concerns HeLa cells. In words: […]-GLO cell viability, single drugs (Example 1). It is filed as cell-based. The settings on record: 72 h. An excerpt:
(§1) To test the individual effects of artesunate and panobinostat, three cervical cancer cell model lines (Caski, SiHa, and HeLa cells) were obtained from the American Type Culture Collection (Manassas, Va.) and maintained in DMEM (Invitrogen) supplemented with 10% fetal bovine serum (Quality Biological, Inc., Gaitherburg, Md.) and penicillin/streptomycin (Invitrogen), in accordance with previous experiments. The cells were split every 3 to 5 days to prevent any of the lines from becoming fully confluent.
(§2) To prepare the cells for treatment, 6000 cells per well were seeded in 96-well plates (for each cell line). Cells were then incubated for a 24-hour period to allow them to adhere to the wells. The cells were then treated with various concentrations of artesunate or panobinostat. For artesunate, the concentrations used for treating each cell type were 80 μM, 40 μM, 20 μM, 10 μM, 5 μM, 2.5 μM, and 1.25 μM. […] Control wells consisted of DMEM, in which the DMSO concentration was the highest drug concentration (0.2% for artesunate, 0.064% for panobinostat) tested. Each concentration was performed in triplicate and the control was conducted in sextuplicate.
(§3) After an incubation time of 72 hours, the […]-GLO® Luminescent Cell Viability Assay (Promega) was conducted. The buffer/enzyme solution was mixed and applied to the cells according to the Promega protocol. Cells were then placed on the orbital shaker for 3 minutes, incubated for 30 minutes, and placed in the luminometer for reading.
(§4) To analyze the data, the background (from only the DMEM media) was subtracted from the luminescence of each well. The program GraphPad Prism 7 was then used to calculate the IC50 values and the cell viability curves for each drug and cell line. All readings were normalized based upon the control values.

Data set [3] relates to SiHa cells. In words: […]-GLO cell viability, single drugs (Example 1). It is filed as cell-based. The note with it: Homo sapiens, 72 h, read-out: IC50 Confidence Interval.
Excerpt: as §1, §2, §3, §4

The test system of the next data set is Caski cells. The data set can be described thus: […]-GLO cell viability, single drugs (Example 1). It is filed as cell-based. The note with it: Homo sapiens, Ca-Ski, 72 h, read-out: IC50 Confidence Interval.
Excerpt: as §1, §2, §3, §4

Data set [4] deals with HeLa cells. In words: […]-GLO cell viability, artesunate/panobinostat dose pairings, CompuSyn analysis (Example 1). Further details: key: fraction surviving, normalized to average of untreated controls. Format: cell-based. On the procedure: To test the combined effects of artesunate and panobinostat, HeLa cells were cultured as previously described. The cells were then seeded in 96-well plates as discussed above. After the 24-hour incubation period, the cells were treated by the following means. […] All possible pairings of each drug concentration were tested. […] All pairings were performed in triplicate and the control was performed in sextuplicate.
After 72 hours of incubation time, the […]-GLO® Luminescent Cell Viability Assay (Promega) was conducted as above. The combination effect of the drugs was analyzed using the CompuSyn program. The background (DMEM only) was subtracted as described previously and all experimental wells were normalized to the average of the controls (as above).

For data set [5], the system named is HeLa cells. The data set can be described thus: […]-GLO cell viability, drugs alone and in combination (Example 4). Format: cell-based. The settings on record: Homo sapiens. Here is the method:
(§5) The IC50 values were calculated from the cell viability assays for each drug alone and in combination. […] Cells were then incubated for a 24-hour period to allow them to adhere to the wells. […] For the experiments involving artesunate and panobinostat, the concentrations used varied by cell type. […] The buffer/enzyme solution was mixed and applied to the cells according to the Promega protocol. Cells were then placed on the orbital shaker for 2 minutes and then placed in the luminometer for reading. To analyze the data, the background (from only the DMEM media) was subtracted from the luminescence of each well. […] All readings were normalized based upon the control values. […] Analyses were conducted using GraphPad Prism 9. The combination index and dose-reduction index values were calculated based using the summary of the data for all three cell types. […] Dose reduction values are the measure of how many folds the dose of each drug in a synergistic combination may be reduced compared with the doses of each drug alone. […] The values are shown in Table 4 for IC50 and in Table 5 for IC90. […] The methods of analysis are the same as those described above. […] A DMSO experimental stock was made in DMEM as a negative control. […] Analyses were conducted using GraphPad Prism 9. The combination index and dose-reduction index values were calculated based using the summary of the data for all three cell types. […] Dose reduction values are the measure of how many folds the dose of each drug in a synergistic combination may be reduced compared with the doses of each drug alone. […] The values are shown in Table 6 for IC50 and in Table 7 for IC90.

Data set [6] relates to SiHa cells. The data set is described as above. It is filed as cell-based. The note with it: Homo sapiens. Here is the method:
as §5

A further data set relates to HPV precancers. The note with it: self-administered by patients; published clinical trial [8]; cited from earlier work.
For the next data set, the system named is HEC/16E6E7 cells. In words: […]-GLO cell viability, drugs alone and in combination (Example 4). It is filed as cell-based. Here is the method:
The cell lines were treated with artesunate, vorinostat, and panobinostat individually and in combination. The IC50 values were calculated from the cell viability assays for each drug alone and in combination. […] Cells were then incubated for a 24-hour period to allow them to adhere to the wells. […] For the experiments involving artesunate and panobinostat, the concentrations used varied by cell type. […] After an incubation time of 72 hours, the […]-GLO® Luminescent Cell Viability Assay (Promega) was conducted. The buffer/enzyme solution was mixed and applied to the cells according to the Promega protocol. Cells were then placed on the orbital shaker for 2 minutes and then placed in the luminometer for reading. To analyze the data, the background (from only the DMEM media) was subtracted from the luminescence of each well. […] All readings were normalized based upon the control values. […] Analyses were conducted using GraphPad Prism 9. The combination index and dose-reduction index values were calculated based using the summary of the data for all three cell types. […] Dose reduction values are the measure of how many folds the dose of each drug in a synergistic combination may be reduced compared with the doses of each drug alone. By reducing dose, toxicity is reduced without compromising effect. The values are shown in Table 4 for IC50 and in Table 5 for IC90. […] The methods of analysis are the same as those described above. […] A DMSO experimental stock was made in DMEM as a negative control. […] Analyses were conducted using GraphPad Prism 9. The combination index and dose-reduction index values were calculated based using the summary of the data for all three cell types. […] Dose reduction values are the measure of how many folds the dose of each drug in a synergistic combination may be reduced compared with the doses of each drug alone. By reducing dose, toxicity is reduced without compromising effect. The values are shown in Table 6 for IC50 and in Table 7 for IC90.

For data set [7] the following is noted: toxicity to humans; cited from earlier work.

Read-outs that look alike come from different tables or passages of the source.

In the case of `C[C@H]1[C@H](OC(=O)CCC(=O)O)O[C@@H]2O[C@@]3(C)CC[C@H]4[C@H](C)CC[C@@H]1[C@@]24OO3` [artesunate], the “killing of HPV-positive cells” value in [1] was “selectively kill”. Also, the IC50 (usually the concentration at which inhibition is half-maximal) was roughly 5 µM with HeLa cells [2] (Homo sapiens, drug alone); 4.33 to 6.07 µM in the data set with HeLa cells [2] (Homo sapiens, read-out: IC50 Confidence Interval, HeLa, 95% confidence interval); 5.13 µM with HeLa cells [2] (drug alone); 6.8 to 9.43 µM in the data set with SiHa cells [3]; 1.74 to 3.14 µM in the data set with Caski cells; 3.7 µM in the data set with HeLa cells [5] (HeLa, 72 h, read-out: IC50 ART). The IC50 in the data set on HeLa cells [5] (HeLa, read-out: IC50 ART) worked out at 4.55 µM; in the data set on SiHa cells [6] (SiHa, 72 h, read-out: IC50 ART), 4.83 µM; with SiHa cells [6] (SiHa, read-out: IC50 ART) it was 6.06 µM; with HEC/16E6E7 cells (72 h, read-out: IC50 ART) it was 4.93 µM; with HEC/16E6E7 cells (read-out: IC50 ART), 6.99 µM. For the same molecule, the “Effect (fraction of HeLa cells still surviving)” value is on record as 0.7457 in the data set on HeLa cells [4] (artesunate 1.25 uM alone); 0.6418 in the data set on HeLa cells [4] (artesunate 2.5 uM alone); 0.5808 in the data set on HeLa cells [4] (artesunate 5.0 uM alone); 0.4287 in the data set on HeLa cells [4] (artesunate 10.0 uM alone); 0.3015 in the data set on HeLa cells [4] (artesunate 20.0 uM alone). Further, the IC90 (usually the point of the concentration-response curve where the effect stands at 90%) worked out at 14.3 µM in the data set on HeLa cells [5] (HeLa, 72 h, read-out: IC90 ART); 15.5 µM in the data set with HeLa cells [5] (HeLa, read-out: IC90 ART); 30 µM with SiHa cells [6] (SiHa, 72 h, read-out: IC90 ART); 34.5 µM in the data set with SiHa cells [6] (SiHa, read-out: IC90 ART); 77.6 µM in the data set on HEC/16E6E7 cells (72 h, read-out: IC90 ART); 158 µM in the data set with HEC/16E6E7 cells (read-out: IC90 ART). Also, the “cure of HPV precancers” value in the data set on HPV precancers is 70%. The “safety relative to artemether” value in [7] is “twice as safe as artemether”. Moreover, the “toxicity relative to chloroquinine” value in data set [7] is on record as “one-fiftieth as toxic as chloroquinine”.
`Cc1[nH]c2ccccc2c1CCNCc1ccc(/C=C/C(=O)NO)cc1` [panobinostat]: the half-maximal inhibitory concentration (IC50) with HeLa cells [2] (Homo sapiens, 95% confidence interval, read-out: IC50 Confidence Interval) is 0.00771 to 0.0132 µM; in the data set with HeLa cells [2] (Homo sapiens, drug alone, read-out: IC50), roughly 0.01 µM; with HeLa cells [2] (drug alone, read-out: IC50) it was 0.0101 µM; in the data set on SiHa cells [3] (95% confidence interval), 0.0199 to 0.0257 µM; in the data set with Caski cells (Caski, 95% confidence interval), 0.00655 to 0.0125 µM; with HeLa cells [5] (Hela, PAN alone, 72 h, read-out: IC50 PAN), 14.7 µM. Also, the IC50 was determined as 17.8 µM with SiHa cells [6] (Siha, PAN alone, 72 h, read-out: IC50 PAN) and 25 µM in the data set with HEC/16E6E7 cells (HEC/16E6E7, PAN alone, 72 h, read-out: IC50 PAN). Further, the “Effect (fraction of HeLa cells still surviving)” value with HeLa cells [4] (panobinostat 2.5 nM alone) is 0.7864; with HeLa cells [4] (panobinostat 5.0 nM alone), 0.7379; with HeLa cells [4] (panobinostat 10.0 nM alone), 0.6177; in the data set with HeLa cells [4] (panobinostat 20.0 nM alone) it was 0.4359; in the data set on HeLa cells [4] (panobinostat 40.0 nM alone), 0.3322. Further, the IC90 in the data set on HeLa cells [5] (Hela, PAN alone, 72 h, read-out: IC90 PAN) is 60.5 µM; in the data set with SiHa cells [6] (Siha, PAN alone, 72 h, read-out: IC90 PAN), 67.6 µM; in the data set on HEC/16E6E7 cells (HEC/16E6E7, PAN alone, 72 h, read-out: IC90 PAN), 115 µM.
As to `O=C(CCCCCCC(=O)Nc1ccccc1)NO` [vorinostat], the IC90 in the data set on HeLa cells [5] (Hela, SAHA alone, read-out: IC90 SAHA) amounted to 6.5 µM; in the data set on SiHa cells [6] (Siha, SAHA alone, read-out: IC90 SAHA) it was 13.2 µM; in the data set with HEC/16E6E7 cells (HEC/16E6E7, SAHA alone, read-out: IC90 SAHA), 8.54 µM. Further, in the data set with HEC/16E6E7 cells (HEC/16E6E7, SAHA alone, read-out: IC50 SAHA), the 50% inhibitory concentration (IC50) turned out to be 2.31 µM.
